Literature values, collected in patent publication US5229370A, “Water soluble branched beta cyclodextrin steroid complex” (priority 1992, dated 1993).

Settings: under ambient conditions; reported

| SMILES | solubility of steroid in water |
| --- | --- |
| CC(C)CCC[C@@H](C)[C@H]1CC[C@H]2[C@@H]3CC=C4C[C@@H](O)CC[C@]4(C)[C@H]3CC[C@]12C [cholesterol] | 2 µg/mL |
| CC(=O)[C@H]1CC[C@H]2[C@@H]3CCC4=CC(=O)CC[C@]4(C)[C@H]3CC[C@]12C [progesterone] | 16 µg/mL |
| C[C@]12CC[C@H]3[C@@H](CCC4=CC(=O)CC[C@@]43C)[C@@H]1CC[C@@H]2O [testosterone] | 40 µg/mL |
